Source: ChEMBL document CHEMBL5137017, “Identification of NVP-CLR457 as an Orally Bioavailable Non-CNS-Penetrant pan-Class IA Phosphoinositol-3-Kinase Inhibitor” (J Med Chem, 2022)
pIC50: −log10 of the molar value. Calls of active or inactive are those of the source. No cut-off for these calls is given here.

Columns and labels:
[1] = Apparent permeability across basolateral to apical side in human Caco-2 cells at 10 uM measured after 120 mins by LC-MS/MS analysis; type: ADME, cell-based
[2] = biological target: Phosphatidylinositol 4,5-bisphosphate 3-kinase catalytic subunit beta isoform (Homo sapiens, UniProt P42338); experiment: Inhibition of PI3Kbeta (unknown origin) using L-alpha-phosphatidylinositol as substrate in presence of ATP by Kinase Glo luminescence assay
[3] = Inhibition of wild type PI3K in human HCC1187 cells assessed as reduction in phosphorylation of AKT at Ser473 residue by Western blot analysis; type: cell-based
[4] = Inhibition of PI3K PTEN mutant in human HCC38 cells assessed as reduction in phosphorylation of AKT at Ser473 residue by Western blot analysis; type: cell-based
[5] = AUC(0 to Tlast) in athymic nude mouse xenografted with rat Rat1 cells expressing myr-p110alpha at 3 mg/kg, po measured after 8 days by LC-MS/MS analysis; type: ADME, organism-based; design: time 8 day, dose 3 mg/kg, route po; details: in vivo
[6] = Dose normalized AUC in Sprague-Dawley rat at 100 mg/kg, po measured upto 24 hrs by LC-MS/MS analysis; type: ADME, organism-based; details: in vivo
[7] = Effect on blood glucose level in athymic nude mouse xenografted with rat Rat1 cells expressing myr-p110alpha at 20 mg/kg, po bid measured upto 14 hrs by glucometer analysis; type: toxicity, organism-based; details: in vivo
[8] = Tmax in OF1 mouse at 10 mg/kg,po or 3 mg/kg,iv measured upto 24 hrs by LC-MS/MS analysis; type: ADME, organism-based; details: in vivo
[9] = Dose normalized AUC(0 to Tlast) in athymic nude mouse xenografted with rat Rat1 cells expressing myr-p110alpha at 40 mg/kg, po measured after 8 days by LC-MS/MS analysis; type: ADME, organism-based; details: in vivo, 192 h, time 8 day
[10] = AUC(0 to Tlast) in athymic nude mouse xenografted with rat Rat1 cells expressing myr-p110alpha at 40 mg/kg, po measured after 8 days by LC-MS/MS analysis; type: ADME, organism-based; design: time 8 day, dose 40 mg/kg, route po; details: in vivo
[11] = Dose normalized Cmax in Sprague-Dawley rat at 100 mg/kg, po measured upto 24 hrs by LC-MS/MS analysis; type: ADME, organism-based; details: in vivo
Rat1 = experiment: Antitumor activity at rat Rat1 cells expressing myr-p110alpha xenografted in athymic nude mouse assessed as T/C ratio at 20 mg/kg, po bid measured after 15 to 24 days; type: functional; details: time 15-24 day
[12] = Tmax in Beagle dog at 5.4 mg/kg, po measured upto 24 hrs using PVP-ASD form of sample by LC-MS/MS analysis; type: ADME, organism-based, Canis lupus familiaris; details: in vivo
[13] = Drug concentration in OF1 mouse brain at 1 mg/kg, iv measured at 1 hr post dose by LC-MS/MS analysis; type: ADME, organism-based; details: in vivo
[14] = Half life in Beagle dog at 6 mg/kg, po measured upto 24 hrs using crystalline form of sample by LC-MS/MS analysis; type: ADME, organism-based, Canis lupus familiaris; details: in vivo
[15] = Toxicity in athymic nude mouse xenografted with human HBRX2524 cells assessed as change in body weight at 40 mg/kg, po qd measured upto 16 days; type: organism-based; details: in vivo, 384 h, time < 16 day
[16] = 1-octanol, logP of the compound at pH 7.4; type: physicochemical
[17] = Cmax in athymic nude mouse xenografted with rat Rat1 cells expressing myr-p110alpha at 10 mg/kg, po measured after 8 days by LC-MS/MS analysis; type: ADME, organism-based; design: dose 10 mg/kg, time 8 day, route po; details: in vivo
[18] = Minimal apparent permeability across apical to basolateral side in human Caco-2 cells at 0.25 to 30 uM measured after 120 mins by LC-MS/MS analysis; type: ADME, cell-based; details: dose 0.25-30 µM
Mus musculus = experiment: In vivo Inhibition of AKT phosphorylation at Ser473 residue in athymic nude mouse xenografted with rat Rat1-myr-p110alpha cells at 20 mg/kg, po qd measured after 1 to 10 hrs; type: functional, organism-based; details: time 1-10 hrs
[19] = In vivo Inhibition of AKT phosphorylation at Ser473 residue in athymic nude mouse xenografted with rat Rat1-myr-p110alpha cells at 3 mg/kg, po qd measured after 1 hr; type: functional
[20] = Efflux ratio of apparent permeability from […] in human Caco-2 cells at 10 uM incubated upto 120 mins by LC-MS/MS analysis; type: ADME, cell-based; details: caco-2, 2 h
[21] = Dose normalized Cmax in Sprague-Dawley rat at 30 mg/kg, po measured upto 24 hrs by LC-MS/MS analysis; type: ADME, organism-based; details: in vivo
[22] = Inhibition of wild type PI3K in human HCC1143 cells assessed as reduction in phosphorylation of AKT at Ser473 residue by Western blot analysis; type: cell-based
[23] = Tmax in Sprague-Dawley rat at 3 mg/kg, po measured upto 24 hrs by LC-MS/MS analysis; type: ADME, organism-based; details: in vivo
[24] = Effect on plasma insulin level in athymic nude mouse xenografted with rat Rat1 cells expressing myr-p110alpha at 3 mg/kg, po qd measured upto 14 hrs by glucometer analysis; type: toxicity, organism-based; details: in vivo
[25] = Drug concentration in OF1 mouse blood at 1 mg/kg, iv measured at 1 hr post dose by LC-MS/MS analysis; type: ADME, organism-based; details: whole blood, read-out: Ct
[26] = Tlast in athymic nude mouse xenografted with rat Rat1 cells expressing myr-p110alpha at 20 mg/kg, po measured after 8 days by LC-MS/MS analysis; type: ADME, organism-based; details: in vivo, 192 h, time 8 day
[27] = Inhibition of PI3K PTEN mutant in human HCC1937 cells assessed as reduction in phosphorylation of AKT at Ser473 residue by Western blot analysis; type: cell-based
[28] = Dose normalized Cmax in beagle dog at 0.3 mg/kg, po measured upto 24 hrs by LC-MS/MS analysis; type: ADME, organism-based, Canis lupus familiaris; details: in vivo
[29] = Cmax in athymic nude mouse xenografted with rat Rat1 cells expressing myr-p110alpha at 3 mg/kg, po measured after 8 days by LC-MS/MS analysis; type: ADME, organism-based; design: time 8 day, dose 3 mg/kg, route po; details: in vivo
[30] = Tlast in athymic nude mouse xenografted with rat Rat1 cells expressing myr-p110alpha at 40 mg/kg, po measured after 8 days by LC-MS/MS analysis; type: ADME, organism-based; details: in vivo, 192 h, time 8 day
[31] = Oral bioavailability in OF1 mouse plasma at 10 mg/kg measured upto 24 hrs by LC-MS/MS analysis; type: ADME, organism-based
[32] = Tmax in Beagle dog at 6 mg/kg, po measured upto 24 hrs using crystalline form of sample by LC-MS/MS analysis; type: ADME, organism-based, Canis lupus familiaris; details: in vivo
[33] = Stability in human liver microsomes assessed as hepatic extraction preincubated for 3 mins followed by NADPH addition and measured after 60 mins; type: ADME, Microsome; details: read-out: ERH
[34] = Dose normalized AUC in OF1 mouse plasma at 10 mg/kg, po measured upto 24 hrs by LC-MS/MS analysis; type: ADME, organism-based; details: in vivo
[35] = Inhibition of PI3K PTEN mutant in human HCC1395 cells assessed as reduction in phosphorylation of AKT at Ser473 residue by Western blot analysis; type: cell-based
[36] = Lipophilicity, logD of compound at pH 6.5; type: physicochemical; details: buffer
[37] = Effect on blood glucose level in athymic nude mouse xenografted with rat Rat1 cells expressing myr-p110alpha assessed as fold increase at 40 mg/kg, po bid measured for 2 to 10 hrs by glucometer analysis; type: toxicity, organism-based; details: in vivo, time 2-10 hrs

Chain of Phosphatidylinositol 4,5-bisphosphate 3-kinase catalytic subunit beta isoform (P42338 whole entry, canonical isoform): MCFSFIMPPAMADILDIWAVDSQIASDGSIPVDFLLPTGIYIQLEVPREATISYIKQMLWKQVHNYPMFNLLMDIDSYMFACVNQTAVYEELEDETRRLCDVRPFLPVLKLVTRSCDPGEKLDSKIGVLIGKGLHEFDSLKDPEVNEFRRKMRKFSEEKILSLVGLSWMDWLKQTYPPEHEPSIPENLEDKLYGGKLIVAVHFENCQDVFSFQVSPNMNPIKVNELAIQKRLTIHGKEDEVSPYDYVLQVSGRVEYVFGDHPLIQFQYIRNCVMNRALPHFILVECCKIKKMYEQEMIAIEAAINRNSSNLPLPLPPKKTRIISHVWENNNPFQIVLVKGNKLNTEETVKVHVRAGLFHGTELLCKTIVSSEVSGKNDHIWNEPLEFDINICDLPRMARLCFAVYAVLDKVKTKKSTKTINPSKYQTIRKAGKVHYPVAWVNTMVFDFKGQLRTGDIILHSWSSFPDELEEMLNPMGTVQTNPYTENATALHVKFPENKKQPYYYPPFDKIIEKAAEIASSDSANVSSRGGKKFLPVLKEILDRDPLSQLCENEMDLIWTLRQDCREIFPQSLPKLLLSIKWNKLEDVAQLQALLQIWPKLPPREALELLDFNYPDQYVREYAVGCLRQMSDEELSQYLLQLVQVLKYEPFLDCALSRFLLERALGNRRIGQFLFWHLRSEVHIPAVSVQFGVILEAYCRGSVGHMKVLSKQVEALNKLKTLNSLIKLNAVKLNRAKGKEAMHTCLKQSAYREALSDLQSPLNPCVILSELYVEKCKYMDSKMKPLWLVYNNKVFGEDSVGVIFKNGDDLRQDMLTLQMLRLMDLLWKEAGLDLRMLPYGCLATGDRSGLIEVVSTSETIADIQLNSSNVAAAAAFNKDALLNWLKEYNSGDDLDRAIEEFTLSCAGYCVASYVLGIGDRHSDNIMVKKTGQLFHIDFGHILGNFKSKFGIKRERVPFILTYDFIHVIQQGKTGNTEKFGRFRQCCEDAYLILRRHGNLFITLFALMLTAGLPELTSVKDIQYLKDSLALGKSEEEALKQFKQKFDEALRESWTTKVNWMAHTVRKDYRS

SMILES: C[C@H]1OC(=O)N(c2nc(-c3cnc(N)nc3C(F)(F)F)cc(N3CCOCC3)n2)[C@H]1CO
- Papp B→A at 2 h, 10 µM [1]: 19 ×10⁻⁶ cm/s
- pIC50 [2]: 8.08
- pIC50 [3]: 7.03
- pIC50 [4]: 7.06
- AUC(0-t) at 192 h [5]: 5.5 µM·h
- AUC/dose [6]: 784 nM·h
- Activity [7]: Non-Toxic
- Tmax [8]: 0.5 h
- AUC/dose [9]: 1.35 µM·h
- AUC(0-t) at 192 h [10]: 54 µM·h
- Cmax/dose [11]: 22 nM
- T/C (Rat1): -0.8
- Tmax [12]: 2 h
- Ct [13]: 31 pmol/g
- half-life [14]: 12.9 h
- Activity [15]: Non-Toxic
- logD [16]: 2
- Cmax [17]: 2280 nM
- Papp A→B at 2 h, up to 30 µM [18]: 2.5 ×10⁻⁶ cm/s
- inhibition (Mus musculus): Active
- inhibition in vivo at 3 mg/kg [19]: 80%
- Ratio [20]: 2.2
- Cmax/dose [21]: 41 nM
- pIC50 [22]: 7.59
- Tmax [23]: 0.5 h
- Activity [24]: Non-Toxic
- concentration at 1 h [25]: 630 nM
- Tlast [26]: 14 h
- pIC50 [27]: 6.60
- Cmax/dose [28]: 1121 nM
- Cmax [29]: 1480 nM
- Tlast [30]: 24 h
- bioavailability [31]: 49%
- Tmax [32]: 4 h
- hepatic extraction ratio at 1 h [33]: 0.37
- AUC/dose [34]: 1738 nM·h
- pIC50 [35]: 6.77
- logD [36]: 2
- fold change (FC) [37]: 2
